Assay results: patent US12723063B2, “GIPR-agonist compounds” (Eli Lilly and Company, priority 2019, dated 2026)
*1 amine or outer side, *2 acyl side, *3 side chain or, on linkers, in order; H or OH if unused. Where a SMILES comes first, the peptide text is derived from it. Side-chain parts run from the residue outwards. [ ]: non-standard residue; d: D form. The star is where a group is joined. C20 diacid = O=C(O)CCCCCCCCCCCCCCCCCCC(=O)*; C18 diacid = O=C(O)CCCCCCCCCCCCCCCCC(=O)*; αMePhe(2-F) = C[C@](N)(Cc1ccccc1F)C(=O)O; γGlu = O=C(O)[C@H](CCC(=O)[*:2])N[*:1]; 4Pal = N[C@@H](Cc1ccncc1)C(=O)O; αMeL = CC(C)C[C@](C)(N)C(=O)O; AEEA = NCCOCCOCC(=O)O; Aib = CC(C)(N)C(=O)O

Biological target: T1, human GLP-1R (Homo sapiens, UniProt P43220)
T1 construct: expressed in transfected cells; crude membranes
Test: [125I]-GLP-1 binding, SPA with WGA beads, 0.1% bacitracin
Conditions: geometric mean, read-out: hGLP1R Ki
Summary of the method: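 Binding buffer was 25 mM HEPES pH 7.4 with 2.5 mM CaCl2, 1 mM MgCl2, 0.1% (w/v) bacitracin, 0.003% Tween-20 and EDTA-free protease inhibitors. Four-parameter regression gave IC50, converted to Ki (geometric mean, SEM, n independent days).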

T1 sequence (P43220 24-463): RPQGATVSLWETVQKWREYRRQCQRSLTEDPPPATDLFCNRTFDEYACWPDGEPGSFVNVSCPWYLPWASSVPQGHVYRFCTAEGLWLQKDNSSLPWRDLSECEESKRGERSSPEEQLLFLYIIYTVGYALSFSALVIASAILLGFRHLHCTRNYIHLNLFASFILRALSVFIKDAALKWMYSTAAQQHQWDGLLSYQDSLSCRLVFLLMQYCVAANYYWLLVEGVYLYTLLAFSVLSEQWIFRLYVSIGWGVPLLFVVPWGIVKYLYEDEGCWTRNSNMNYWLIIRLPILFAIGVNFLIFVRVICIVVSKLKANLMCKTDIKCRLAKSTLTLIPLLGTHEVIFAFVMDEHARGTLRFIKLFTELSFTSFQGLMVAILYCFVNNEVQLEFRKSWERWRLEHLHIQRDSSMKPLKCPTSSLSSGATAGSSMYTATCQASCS

**Q.** `CC[C@H](C)[C@H](NC(=O)[C@H](Cc1ccccc1)NC(=O)[C@@H](NC(=O)CNC(=O)[C@H](CCC(=O)O)NC(=O)C(C)(C)NC(=O)[C@@H](N)Cc1ccc(O)cc1)[C@@H](C)O)C(=O)N[C@@H](CO)C(=O)N[C@@H](CC(=O)O)C(=O)N[C@@H](Cc1ccc(O)cc1)C(=O)N[C@@H](CO)C(=O)N[C@H](C(=O)N[C@@](C)(CC(C)C)C(=O)N[C@@H](CC(C)C)C(=O)N[C@@H](CC(=O)O)C(=O)N[C@@H](CCC(=O)O)C(=O)N[C@@H](CCCCNC(=O)COCCOCCNC(=O)COCCOCCNC(=O)CC[C@H](NC(=O)CCCCCCCCCCCCCCCCCCC(=O)O)C(=O)O)C(=O)N[C@@H](Cc1c[nH]cn1)C(=O)N[C@@H](CCC(N)=O)C(=O)NC(C)(C)C(=O)N[C@@H](CC(=O)O)C(=O)N[C@@H](Cc1ccccc1)C(=O)N[C@H](C(=O)N[C@@H](CCC(=O)O)C(=O)N[C@@H](Cc1ccncc1)C(=O)N[C@@H](CC(C)C)C(=O)N[C@@H](CC(C)C)C(=O)N[C@@H](C)C(=O)N[C@@H](CCC(N)=O)C(=O)NCC(=O)N1CCC[C@H]1C(=O)N[C@@H](CO)C(=O)N[C@@H](CO)C(=O)NCC(=O)N[C@@H](C)C(=O)N1CCC[C@H]1C(=O)N1CCC[C@H]1C(=O)N1CCC[C@H]1C(=O)N[C@@H](CO)C(N)=O)C(C)C)[C@@H](C)CC` [Example 84] (H-Y[Aib]EGTFISDYSI[αMeL]LDEK([AEEA-AEEA-γGlu-C20 diacid])HQ[Aib]DFVE[4Pal]LLAQGPSSGAPPPS-NH2) was tested. Which Ki did it give?
**A.** 325 nM

**Q.** `CC[C@H](C)[C@H](NC(=O)[C@H](Cc1ccccc1)NC(=O)[C@@H](NC(=O)CNC(=O)[C@H](CCC(=O)O)NC(=O)C(C)(C)NC(=O)[C@@H](N)Cc1ccc(O)cc1)[C@@H](C)O)C(=O)N[C@@H](CO)C(=O)N[C@@H](CC(=O)O)C(=O)N[C@@H](Cc1ccc(O)cc1)C(=O)N[C@@H](CO)C(=O)N[C@H](C(=O)N[C@@](C)(CC(C)C)C(=O)N[C@@H](CC(C)C)C(=O)N[C@@H](CC(=O)O)C(=O)N[C@@H](CCC(=O)O)C(=O)N[C@@H](CCCCNC(=O)COCCOCCNC(=O)COCCOCCNC(=O)CC[C@H](NC(=O)CCCCCCCCCCCCCCCCCCC(=O)O)C(=O)O)C(=O)N[C@@H](Cc1c[nH]cn1)C(=O)N[C@@H](CCC(N)=O)C(=O)NC(C)(C)C(=O)N[C@@H](CC(=O)O)C(=O)N[C@@H](Cc1ccccc1)C(=O)N[C@H](C(=O)N[C@@H](CCC(=O)O)C(=O)N[C@@H](Cc1ccncc1)C(=O)N[C@@H](CC(C)C)C(=O)N[C@@H](CC(C)C)C(=O)N[C@@H](C)C(=O)N[C@H](C(=O)NCC(=O)N1CCC[C@H]1C(=O)N[C@@H](CO)C(=O)N[C@@H](CO)C(=O)NCC(=O)N[C@@H](C)C(=O)N1CCC[C@H]1C(=O)N1CCC[C@H]1C(=O)N1CCC[C@H]1C(=O)N[C@@H](CO)C(N)=O)[C@@H](C)O)C(C)C)[C@@H](C)CC` [Example 83] (H-Y[Aib]EGTFISDYSI[αMeL]LDEK([AEEA-AEEA-γGlu-C20 diacid])HQ[Aib]DFVE[4Pal]LLATGPSSGAPPPS-NH2) was tested. Which Ki did it give?
**A.** 452 nM

**Q.** How did the Ki turn out when `CC[C@H](C)[C@H](NC(=O)[C@H](CO)NC(=O)[C@H](Cc1ccc(O)cc1)NC(=O)[C@H](CC(=O)O)NC(=O)[C@H](CO)NC(=O)[C@@H](NC(=O)[C@H](Cc1ccccc1)NC(=O)[C@@H](NC(=O)CNC(=O)[C@H](CCC(=O)O)NC(=O)[C@@H](C)NC(=O)[C@@H](N)Cc1ccc(O)cc1)[C@@H](C)O)[C@@H](C)CC)C(=O)N[C@@H](CC(C)C)C(=O)N[C@@H](CC(C)C)C(=O)N[C@@H](CC(=O)O)C(=O)N[C@@H](CCCCN)C(=O)N[C@@H](CCCCNC(=O)COCCOCCNC(=O)COCCOCCNC(=O)CC[C@H](NC(=O)CCCCCCCCCCCCCCCCC(=O)O)C(=O)O)C(=O)N[C@@H](C)C(=O)N[C@@H](CCC(N)=O)C(=O)NC(C)(C)C(=O)N[C@@H](CC(=O)O)C(=O)N[C@@H](Cc1ccccc1)C(=O)N[C@H](C(=O)N[C@@H](CC(N)=O)C(=O)N[C@@H](Cc1ccncc1)C(=O)N[C@@H](CC(C)C)C(=O)N[C@@H](CC(C)C)C(=O)N[C@@H](C)C(=O)N[C@@H](CCC(N)=O)C(=O)NCC(=O)N1CCC[C@H]1C(=O)N[C@@H](CO)C(=O)N[C@@H](CO)C(=O)NCC(=O)N[C@@H](C)C(=O)N1CCC[C@H]1C(=O)N1CCC[C@H]1C(=O)N1CCC[C@H]1C(=O)N[C@@H](CO)C(N)=O)C(C)C` [Example 18] (H-Y[dA]EGTFISDYSILLDKK([AEEA-AEEA-γGlu-C18 diacid])AQ[Aib]DFVN[4Pal]LLAQGPSSGAPPPS-NH2) was run?
**A.** 158 nM

**Q.** Which Ki does the source give for `CC[C@H](C)[C@H](NC(=O)[C@H](CO)NC(=O)[C@H](Cc1ccc(O)cc1)NC(=O)[C@H](CC(=O)O)NC(=O)[C@H](CO)NC(=O)[C@@H](NC(=O)[C@](C)(Cc1ccccc1F)NC(=O)[C@@H](NC(=O)CNC(=O)[C@H](CCC(=O)O)NC(=O)C(C)(C)NC(=O)[C@@H](N)Cc1ccc(O)cc1)[C@@H](C)O)[C@@H](C)CC)C(=O)N[C@@H](C)C(=O)N[C@@H](CC(C)C)C(=O)N[C@@H](CC(=O)O)C(=O)N[C@@H](CCCCN)C(=O)N[C@H](C(=O)N[C@@H](Cc1c[nH]cn1)C(=O)N[C@@H](CCC(N)=O)C(=O)NC(C)(C)C(=O)N[C@@H](CC(=O)O)C(=O)N[C@@H](Cc1ccccc1)C(=O)N[C@H](C(=O)N[C@@H](CCC(=O)O)C(=O)N[C@@H](Cc1ccncc1)C(=O)N[C@@H](CCCCNC(=O)COCCOCCNC(=O)COCCOCCNC(=O)CC[C@H](NC(=O)CCCCCCCCCCCCCCCCCCC(=O)O)C(=O)O)C(=O)N[C@@H](CC(C)C)C(=O)N[C@@H](CCC(=O)O)C(=O)N[C@@H](C)C(=O)NCC(=O)N1CCC[C@H]1C(=O)N[C@@H](CO)C(=O)N[C@@H](CO)C(=O)NCC(=O)N[C@@H](C)C(=O)N1CCC[C@H]1C(=O)N1CCC[C@H]1C(=O)N1CCC[C@H]1C(=O)N[C@@H](CO)C(N)=O)C(C)C)[C@@H](C)CC` [Example 113] (H-Y[Aib]EGT[αMePhe(2-F)]ISDYSIALDKIHQ[Aib]DFVE[4Pal]K([AEEA-AEEA-γGlu-C20 diacid])LEAGPSSGAPPPS-NH2) here?
**A.** > 921 nM

**Q.** `CC[C@H](C)[C@H](NC(=O)[C@H](CO)NC(=O)[C@H](Cc1ccc(O)cc1)NC(=O)[C@H](CC(=O)O)NC(=O)[C@H](CO)NC(=O)[C@@H](NC(=O)[C@](C)(Cc1ccccc1F)NC(=O)[C@@H](NC(=O)CNC(=O)[C@H](CCC(=O)O)NC(=O)C(C)(C)NC(=O)[C@@H](N)Cc1ccc(O)cc1)[C@@H](C)O)[C@@H](C)CC)C(=O)N[C@@H](C)C(=O)N[C@@H](CC(C)C)C(=O)N[C@@H](CC(=O)O)C(=O)N[C@@H](CCCCN)C(=O)N[C@@H](CCCCNC(=O)COCCOCCNC(=O)COCCOCCNC(=O)CC[C@H](NC(=O)CCCCCCCCCCCCCCCCCCC(=O)O)C(=O)O)C(=O)N[C@@H](Cc1c[nH]cn1)C(=O)N[C@@H](CCC(N)=O)C(=O)NC(C)(C)C(=O)N[C@@H](CCC(=O)O)C(=O)N[C@@H](Cc1ccccc1)C(=O)N[C@H](C(=O)N[C@@H](CC(N)=O)C(=O)N[C@@H](Cc1c[nH]c2ccccc12)C(=O)N[C@@H](CC(C)C)C(=O)N[C@@H](CC(C)C)C(=O)N[C@@H](C)C(=O)NCC(=O)NCC(=O)N1CCC[C@H]1C(=O)N[C@@H](CO)C(=O)N[C@@H](CO)C(=O)NCC(=O)N[C@@H](C)C(=O)N1CCC[C@H]1C(=O)N1CCC[C@H]1C(=O)N1CCC[C@H]1C(=O)N[C@@H](CO)C(N)=O)C(C)C` [Example 26] (H-Y[Aib]EGT[αMePhe(2-F)]ISDYSIALDKK([AEEA-AEEA-γGlu-C20 diacid])HQ[Aib]EFVNWLLAGGPSSGAPPPS-NH2) was tested. Which Ki did it give?
**A.** 16.5 nM

**Q.** With `CC[C@H](C)[C@H](NC(=O)[C@H](Cc1ccccc1)NC(=O)[C@@H](NC(=O)CNC(=O)[C@H](CCC(=O)O)NC(=O)C(C)(C)NC(=O)[C@@H](N)Cc1ccc(O)cc1)[C@@H](C)O)C(=O)N[C@@H](CO)C(=O)N[C@@H](CC(=O)O)C(=O)N[C@@H](Cc1ccc(O)cc1)C(=O)N[C@@H](CO)C(=O)N[C@H](C(=O)N[C@@](C)(CC(C)C)C(=O)N[C@@H](CC(C)C)C(=O)N[C@@H](CC(=O)O)C(=O)N[C@@H](CCCCN)C(=O)N[C@@H](CCCCNC(=O)COCCOCCNC(=O)COCCOCCNC(=O)CC[C@H](NC(=O)CCCCCCCCCCCCCCCCCCC(=O)O)C(=O)O)C(=O)N[C@@H](Cc1c[nH]cn1)C(=O)N[C@@H](CCC(N)=O)C(=O)NC(C)(C)C(=O)N[C@@H](CC(=O)O)C(=O)N[C@@H](Cc1ccccc1)C(=O)N[C@H](C(=O)N[C@@H](CCC(=O)O)C(=O)N[C@@H](Cc1ccncc1)C(=O)N[C@@H](CC(C)C)C(=O)N[C@@H](CC(C)C)C(=O)N[C@@H](C)C(=O)N[C@@H](C)C(=O)NCC(=O)N1CCC[C@H]1C(=O)N[C@@H](CO)C(=O)N[C@@H](CO)C(=O)NCC(=O)N[C@@H](C)C(=O)N1CCC[C@H]1C(=O)N1CCC[C@H]1C(=O)N1CCC[C@H]1C(=O)N[C@@H](CO)C(N)=O)C(C)C)[C@@H](C)CC` [Example 78] as the compound, how does the Ki read?
**A.** 394 nM

**Q.** `CC[C@H](C)[C@H](NC(=O)[C@H](CO)NC(=O)[C@H](Cc1ccc(O)cc1)NC(=O)[C@H](CC(=O)O)NC(=O)[C@H](CO)NC(=O)[C@@H](NC(=O)[C@H](Cc1ccccc1)NC(=O)[C@@H](NC(=O)CNC(=O)[C@H](CCC(=O)O)NC(=O)[C@@H](C)NC(=O)[C@@H](N)Cc1ccc(O)cc1)[C@@H](C)O)[C@@H](C)CC)C(=O)N[C@@H](CC(C)C)C(=O)N[C@@H](CC(C)C)C(=O)N[C@@H](CC(=O)O)C(=O)N[C@@H](CCCCN)C(=O)N[C@@H](CCCCNC(=O)COCCOCCNC(=O)COCCOCCNC(=O)CC[C@H](NC(=O)CCCCCCCCCCCCCCCCC(=O)O)C(=O)O)C(=O)N[C@@H](C)C(=O)N[C@@H](CCC(N)=O)C(=O)NC(C)(C)C(=O)N[C@@H](CC(=O)O)C(=O)N[C@@H](Cc1ccccc1)C(=O)N[C@H](C(=O)N[C@@H](CC(N)=O)C(=O)N[C@@H](Cc1c[nH]c2ccccc12)C(=O)N[C@@H](CC(C)C)C(=O)N[C@@H](CC(C)C)C(=O)N[C@@H](C)C(=O)NCC(=O)NCC(=O)N1CCC[C@H]1C(=O)N[C@@H](CO)C(=O)N[C@@H](CO)C(=O)NCC(=O)N[C@@H](C)C(=O)N1CCC[C@H]1C(=O)N1CCC[C@H]1C(=O)N1CCC[C@H]1C(=O)N[C@@H](CO)C(N)=O)C(C)C` [Example 19] (H-Y[dA]EGTFISDYSILLDKK([AEEA-AEEA-γGlu-C18 diacid])AQ[Aib]DFVNWLLAGGPSSGAPPPS-NH2) was tested. Which Ki did it give?
**A.** 15.2 nM
